How the values were obtained:
[1] = test system: radish, wild; assay: Test D postemergence; assay type: in vivo, Raphanus raphanistrum; conditions: scale 0 to 100
In short: (§1)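 Seeds are planted in silt loam and treated preemergence, while parallel plantings in a peat moss/vermiculite medium with starter nutrients receive postemergence sprays at the 1- to 4-leaf stage. All formulations use a non-phytotoxic solvent mixture with surfactant. Plants are kept in a controlled growth environment and rated visually after 14–21 days.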

[2] = test system: buckwheat, wild; assay: Test D preemergence; assay type: in vivo, Polygonum convolvulus; conditions: for Plant response rating, Buckwheat, Wild: Preemergence, scale 0 to 100
In short: as §1

[3] = test system: wheat, winter; assay: Test D postemergence; assay type: in vivo, Triticum aestivum; conditions: scale 0 to 100
Excerpt: (§2) Seeds of plant species selected from bluegrass (annual bluegrass, Poa annua), blackgrass (Alopecurus myosuroides), canarygrass (littleseed canarygrass, Phalaris minor), chickweed (common chickweed, Stellaria media), galium (catchweed bedstraw, Galium aparine), bromegrass, downy (downy bromegrass, Bromus tectorum), field poppy (Papaver rhoeas), field violet (Viola arvensis), foxtail, green (green foxtail, Setaria viridis), deadnettle (henbit deadnettle, Lamium amplexicaule), ryegrass, Italian (Italian ryegrass, Lolium multiflorum), kochia (Kochia scoparia), lambsquarters (Chenopodium album), oilseed rape (Brassica napus), pigweed (redroot pigweed, Amaranthus retroflexus), chamomile (scentless chamomile, Matricaria inodora), speedwell (bird's-eye speedwell, Veronica persica), barley, spring (spring barley, Hordeum vulgare), wheat, spring (spring wheat, Triticum aestivum), buckwheat, wild (wild buckwheat, Polygonum convolvulus), mustard, wild (wild mustard, Sinapis arvensis), oat, wild (wild oat, Avena fatua), radish, wild (wild radish, Raphanus raphanistrum), windgrass (Apera spica-venti), Russian thistle (Salsola kali), barley, winter (winter barley, Hordeum vulgare), and wheat, winter (winter wheat, Triticum aestivum) were planted into a silt loam soil and treated preemergence with test chemicals formulated in a non-phytotoxic solvent mixture which included a surfactant.
(§3) At the same time, these species were planted in pots containing Redi-Earth® planting medium (Scotts Company, 14111 Scottslawn Road, Marysville, Ohio 43041) comprising spaghnum peat moss, vermiculite, wetting agent and starter nutrients and treated with postemergence applications of the test chemicals formulated in the same manner. Plants ranged in height from 2 to 18 cm (1- to 4-leaf stage). Treated plants and controls were maintained in a controlled growth environment for 14 to 21 days after which time all species were compared to controls and visually evaluated. Plant response ratings, summarized in Table D, are based on a scale of 0 to 100 where 0 is no effect and 100 is complete control. A dash (-) response means no test result.

[4] = test system: wheat, spring; assay: Test D postemergence; assay type: in vivo, Triticum aestivum; conditions: scale 0 to 100
Excerpt: as §2, §3

[5] = test system: barley, spring; assay: Test D postemergence; assay type: in vivo, Hordeum vulgare; conditions: scale 0 to 100
Excerpt: as §2, §3

[6] = test system: barley, winter; assay: Test D postemergence; assay type: in vivo, Hordeum vulgare; conditions: scale 0 to 100
Excerpt: as §2, §3

[7] = test system: speedwell; assay: Test D preemergence; assay type: in vivo, Veronica persica; conditions: for Plant response rating, Speedwell: Preemergence, scale 0 to 100
In short: as §1

[8] = test system: field poppy; assay: Test D postemergence; assay type: in vivo, Papaver rhoeas; conditions: scale 0 to 100
In short: as §1

[9] = test system: canarygrass; assay: Test D preemergence; assay type: in vivo, Phalaris minor; conditions: for Plant response rating, Canarygrass: Preemergence, scale 0 to 100
In short: as §1

[10] = test system: windgrass; assay: Test D preemergence; assay type: in vivo, Apera spica-venti; conditions: for Plant response rating, Windgrass: Preemergence, scale 0 to 100
Excerpt: as §2, §3

[11] = test system: field violet; assay: Test D postemergence; assay type: in vivo, Viola arvensis; conditions: scale 0 to 100
In short: as §1

[12] = test system: galium; assay: Test D preemergence; assay type: in vivo, Galium aparine; conditions: for Plant response rating, Galium: Preemergence, scale 0 to 100
Excerpt: as §2, §3

[13] = test system: oilseed rape; assay: Test D postemergence; assay type: in vivo, Brassica napus; conditions: scale 0 to 100
Excerpt: as §2, §3

[14] = test system: windgrass; assay: Test D postemergence; assay type: in vivo, Apera spica-venti; conditions: scale 0 to 100
Excerpt: as §2, §3

[15] = test system: ryegrass, Italian; assay: Test D preemergence; assay type: in vivo, Lolium multiflorum; conditions: for Plant response rating, Ryegrass, Italian: Preemergence, scale 0 to 100
Excerpt: as §2, §3

[16] = test system: field poppy; assay: Test D preemergence; assay type: in vivo, Papaver rhoeas; conditions: for Plant response rating, Field Poppy: Preemergence, scale 0 to 100
In short: as §1

[17] = test system: chamomile; assay: Test D postemergence; assay type: in vivo, Matricaria inodora; conditions: scale 0 to 100
Excerpt: as §2, §3

[18] = 16 g ai/ha, taken as preemergence

## CCc1cc(C(=O)NC2CC2)nn1Cc1ccnc(C(F)(F)F)c1 [Compound 76]
[1]; Postemergence, 16 g ai/ha
  Plant response rating, Radish, Wild: 5
[1]; Postemergence, 31 g ai/ha
  Radish, Wild plant response rating: 10
[1]; Postemergence, 125 g ai/ha
  Radish, Wild plant response rating: 70
[1]; Postemergence, 250 g ai/ha
  Radish, Wild plant response rating: 65
[1]; postemergence, 62 g ai/ha
  Radish, Wild plant response rating: 20
[2]; [18]
  Plant response rating (scale 0 to 100), Buckwheat, Wild: 0
[2]; 31 g ai/ha
  Plant response rating, Buckwheat, Wild: 20
[2]; 62 g ai/ha
  Plant response rating, Buckwheat, Wild: 70
[2]; 125 g ai/ha
  Plant response rating, Buckwheat, Wild: 100
[2]; 250 g ai/ha
  Plant response rating, Buckwheat, Wild: 100
[3]; Postemergence, 16 g ai/ha
  Plant response rating, Wheat, Winter: 0
[3]; Postemergence, 31 g ai/ha
  Wheat, Winter plant response rating: 0
[3]; Postemergence, 125 g ai/ha
  Wheat, Winter plant response rating: 15
[3]; Postemergence, 250 g ai/ha
  Wheat, Winter plant response rating: 20
[3]; postemergence, 62 g ai/ha
  Wheat, Winter plant response rating: 10
[4]; Postemergence, 16 g ai/ha
  Plant response rating, Wheat, Spring: 0
[4]; Postemergence, 31 g ai/ha
  Wheat, Spring plant response rating: 5
[4]; Postemergence, 125 g ai/ha
  Wheat, Spring plant response rating: 5
[4]; Postemergence, 250 g ai/ha
  Wheat, Spring plant response rating: 10
[4]; postemergence, 62 g ai/ha
  Wheat, Spring plant response rating: 5
[5]; Postemergence, 16 g ai/ha
  Barley, Spring plant response rating: 0
[5]; Postemergence, 31 g ai/ha
  Barley, Spring plant response rating: 0
[5]; Postemergence, 125 g ai/ha
  Barley, Spring plant response rating: 10
[5]; Postemergence, 250 g ai/ha
  Barley, Spring plant response rating: 15
[5]; postemergence, 62 g ai/ha
  Barley, Spring plant response rating: 5
[6]; Postemergence, 16 g ai/ha
  Barley, Winter plant response rating: 10
[6]; Postemergence, 31 g ai/ha
  Barley, Winter plant response rating: 10
[6]; Postemergence, 125 g ai/ha
  Barley, Winter plant response rating: 15
[6]; Postemergence, 250 g ai/ha
  Barley, Winter plant response rating: 20
[6]; postemergence, 62 g ai/ha
  Barley, Winter plant response rating: 10
[7]; [18]
  Plant response rating (scale 0 to 100), Speedwell: 100
[7]; 31 g ai/ha
  Plant response rating, Speedwell: 100
[7]; 62 g ai/ha
  Plant response rating, Speedwell: 100
[7]; 125 g ai/ha
  Plant response rating, Speedwell: 100
[7]; 250 g ai/ha
  Plant response rating, Speedwell: 100
[8]; Postemergence, 16 g ai/ha
  Plant response rating, Field Poppy: 60
[8]; Postemergence, 31 g ai/ha
  Field Poppy plant response rating: 65
[8]; Postemergence, 125 g ai/ha
  Field Poppy plant response rating: 85
[8]; Postemergence, 250 g ai/ha
  Field Poppy plant response rating: 90
[8]; postemergence, 62 g ai/ha
  Field Poppy plant response rating: 70
[9]; [18]
  Plant response rating (scale 0 to 100), Canarygrass: 0
[9]; 31 g ai/ha
  Plant response rating, Canarygrass: 5
[9]; 62 g ai/ha
  Plant response rating, Canarygrass: 65
[9]; 125 g ai/ha
  Plant response rating, Canarygrass: 100
[9]; 250 g ai/ha
  Plant response rating, Canarygrass: 100
[10]; [18]
  Plant response rating (scale 0 to 100), Windgrass: 5
[10]; 31 g ai/ha
  Plant response rating, Windgrass: 15
[10]; 62 g ai/ha
  Plant response rating, Windgrass: 65
[10]; 125 g ai/ha
  Plant response rating, Windgrass: 80
[10]; 250 g ai/ha
  Plant response rating, Windgrass: 100
[11]; Postemergence, 16 g ai/ha
  Plant response rating, Field Violet: 10
[11]; Postemergence, 31 g ai/ha
  Field Violet plant response rating: 15
[11]; Postemergence, 125 g ai/ha
  Field Violet plant response rating: 70
[11]; Postemergence, 250 g ai/ha
  Field Violet plant response rating: 85
[11]; postemergence, 62 g ai/ha
  Field Violet plant response rating: 20
[12]; [18]
  Plant response rating (scale 0 to 100), Galium: 25
[12]; 31 g ai/ha
  Plant response rating, Galium: 50
[12]; 62 g ai/ha
  Plant response rating, Galium: 100
[12]; 125 g ai/ha
  Plant response rating, Galium: 100
[12]; 250 g ai/ha
  Plant response rating, Galium: 100
[13]; Postemergence, 16 g ai/ha
  Plant response rating, Oilseed Rape: 10
[13]; Postemergence, 31 g ai/ha
  Oilseed Rape plant response rating: 15
[13]; Postemergence, 125 g ai/ha
  Oilseed Rape plant response rating: 50
[13]; Postemergence, 250 g ai/ha
  Oilseed Rape plant response rating: 70
[13]; postemergence, 62 g ai/ha
  Oilseed Rape plant response rating: 20
[14]; Postemergence, 16 g ai/ha
  Plant response rating, Windgrass: 5
[14]; Postemergence, 31 g ai/ha
  Windgrass plant response rating: 5
[14]; Postemergence, 125 g ai/ha
  Windgrass plant response rating: 10
[14]; Postemergence, 250 g ai/ha
  Windgrass plant response rating: 15
[14]; postemergence, 62 g ai/ha
  Windgrass plant response rating: 10
[15]; [18]
  Plant response rating (scale 0 to 100), Ryegrass, Italian: 0
[15]; 31 g ai/ha
  Plant response rating, Ryegrass, Italian: 0
[15]; 62 g ai/ha
  Plant response rating, Ryegrass, Italian: 15
[15]; 125 g ai/ha
  Plant response rating, Ryegrass, Italian: 65
[15]; 250 g ai/ha
  Plant response rating, Ryegrass, Italian: 95
[16]; [18]
  Plant response rating (scale 0 to 100), Field Poppy: 95
[16]; 31 g ai/ha
  Plant response rating, Field Poppy: 100
[16]; 62 g ai/ha
  Plant response rating, Field Poppy: 100
[16]; 125 g ai/ha
  Plant response rating, Field Poppy: 100
[16]; 250 g ai/ha
  Plant response rating, Field Poppy: 100
[17]; Postemergence, 16 g ai/ha
  Plant response rating, Chamomile: 10
[17]; Postemergence, 31 g ai/ha
  Chamomile plant response rating: 25
[17]; Postemergence, 125 g ai/ha
  Chamomile plant response rating: 50
[17]; Postemergence, 250 g ai/ha
  Chamomile plant response rating: 55
[17]; postemergence, 62 g ai/ha
  Chamomile plant response rating: 30

— US20150105252A1, “SUBSTITUTED PYRAZOLES AS HERBICIDES” (E I DU PONT DE NEMOURS AND COMPANY, priority 2013, published 2015)
